Data reported in patent publication US20130095194A1 (L'Air Liquide, Société Anonyme pour I'Etude et …, priority 2011, published 2013).

System: neuropathic pain caused by oxaliplatin in rats
Test: Randall-Selitto pain thresholds in rats given repeated intraperitoneal oxaliplatin (chemo-induced neuropathic pain model)
Method: A preclinical study in rats was carried out.
In order to mimic the clinical use as closely as possible, a series of 8 intraperitoneal injections of oxaliplatin were given every 3 to 4 days, as illustrated in FIG. 2. This model is well known in the literature and gives an account of chemo-induced neuropathic pain.
The pain thresholds were evaluated by means of a Randall-Selitto device by applying an increasing pressure to the paw of the rat until the animal lets out a cry. The corresponding weight in grams is then noted (the Y-axis in FIG. 2). Thus, the earlier the animal cries out, for a low weight, the more pain it has.

Compound	pain thresholds (Randall-Selitto, weight at which the animal cries out) (group B: oxaliplatin 2 mg/kg, 8 intraperitoneal injections every 3 to 4 days, with N2/O2 (50%-50%) control gas for 1 hour, control group A 200 g)	persistence of hypersensitivity to pain after the final administration of oxaliplatin (group B, final administration on D25, still present on D42)	hypersensitivity to pain (pain threshold curve versus control group A) (rats given oxaliplatin 2 mg/kg, gas/O2 (50%-50%) inhaled for 1 hour with each administration)
O=C1[O][Pt]2([NH][C@@H]3CCCC[C@H]3[NH]2)[O]C1=O [oxaliplatin]	approximately 150 g	more than 2 weeks	
[Xe] [xenon]			no sign of hypersensitivity to pain
